Measured values published in US12629468B2, “Devices and methods for delivering synergistic active agents to target sites” (IRRIMAX Corporation, priority 2023, dated 2026).
Like-named read-outs stand apart in the source and are kept apart here.

What was measured:
Format in all cases: cell-based
[1] = system: P. aeruginosa (ATCC 15442); assay: Minimum inhibitory concentration / growth inhibition by serial 2-fold dilution; settings: for Average Growth Inhibition (%): average of triplicate
Description: (§1) The minimal inhibitory concentration (MIC, the minimum inhibitory concentration required for 90% growth reduction) of ethyl lauroyl arginate hydrochloride was determined against S. aureus (ATCC 6538), P. aeruginosa (ATCC 15442), and E. coli (ATCC BAA 1427) by serial 2-fold dilution experiments. A solution of chlorhexidine (0.025% w/w) was used as a positive control and comparator.

S. aureus (ATCC 6538) [2] = assay: as above; settings: for Average Growth Inhibition (%): average of triplicate
Description: as §1

E. coli (ATCC BAA 1427) [3] = assay: as above; settings: for Average Growth Inhibition (%): average of triplicate
Description: as §1

P. aeruginosa = assay: Chequerboard assay, FIC and synergy analysis; settings: for MIC: Pseudomonas aeruginosa
Description: (§2) Chlorhexidine gluconate (CHG) and ethyl lauroyl arginate hydrochloride (LAE) were analyzed by chequerboard assay with each test organism to determine potential additive, synergistic, and antagonistic activity. The test organisms S. aureus, P. aeruginosa, and E. coli were tested at ranges of chlorhexidine gluconate (0.122-15.625 μg/mL, 1.25-160 μg/mL, and 0.125-16 μg/mL, respectively) and ethyl lauroyl arginate hydrochloride (LAE) (0.117-15 μg/mL, 0.4688-60 μg/mL, and 0.2344-30 μg/mL, respectively). FIC was calculated by the following Equation 2: […]

S. aureus = assay: Chequerboard assay, FIC and synergy analysis; settings: for MIC: Staphylococcus aureus
Description: as §2

E. coli = assay: Chequerboard assay, FIC and synergy analysis; settings: for MIC: Escherichia coli
Description: as §2

[4] = system: P. aeruginosa (ATCC 15442); assay: Minimal bactericidal concentration by serial 2-fold dilution
Description: as §1, with “bactericidal” for “inhibitory”, “(MBC)” for “(MIC, the minimum inhibitory concentration required for 90% growth reduction)”, “hydrochloride (LAE)” for “hydrochloride”

S. aureus (ATCC 6538) [5] = assay: as above
Description: as §1, with “bactericidal” for “inhibitory”, “(MBC)” for “(MIC, the minimum inhibitory concentration required for 90% growth reduction)”, “hydrochloride (LAE)” for “hydrochloride”

E. coli (ATCC BAA 1427) [6] = assay: as above
Description: as §1, with “bactericidal” for “inhibitory”, “(MBC)” for “(MIC, the minimum inhibitory concentration required for 90% growth reduction)”, “hydrochloride (LAE)” for “hydrochloride”

[7] = read-out: MIC of CHG in Presence of LAE
[8] = 250 μg/mL (0.025% w/w), positive control
[9] = 250 μg/mL (0.025% w/w), positive control, listed as chlorhexidine
[10] = inhibited greater than 90% growth
[11] = 0.46875 μg/mL, average over triplicate
[12] = 0.9375 μg/mL, average over triplicate
[13] = 1.875 μg/mL, average over triplicate
[14] = 3.75 μg/mL, average over triplicate
[15] = 7.5 μg/mL, average over triplicate
[16] = 15 μg/mL, average over triplicate
[17] = 30 μg/mL, average over triplicate
[18] = 60 μg/mL, average over triplicate
[19] = defined as having less than 500 CFU/mL, hydrochloride

`N=C(NCCCCCCNC(=N)NC(=N)Nc1ccc(Cl)cc1)NC(=N)Nc1ccc(Cl)cc1` [Chlorhexidine gluconate, reference compound] was tested, and the inhibition at 250 µg/mL ([1]; Pseudomonas aeruginosa, ATCC15442, read-out: Average Growth Inhibition (%)) was 81%, the inhibition at 250 µg/mL (S. aureus (ATCC 6538) [2]; Staphylococcus aureus, ATCC6538, read-out: Average Growth Inhibition (%)) was 121% and the inhibition at 250 µg/mL (E. coli (ATCC BAA 1427) [3]; Escherichia coli, BAA1427, 250 μg/mL (0.025% w/w), positive control) was 63%. It also gave an MIC (P. aeruginosa; read-out: MIC of CHG Alone) of 40 µg/mL, an MIC (P. aeruginosa; [7]) of 10 µg/mL and an MIC (S. aureus; read-out: MIC of CHG Alone) of 1.95 µg/mL. It also gave an MIC (S. aureus; [7]) of 0.977 µg/mL, an MIC (E. coli; read-out: MIC of CHG Alone) of 8 µg/mL and an MIC (E. coli; [7]) of 4 µg/mL. The CFU/mL [4, 8] was 0 CFU/mL, the “Number of Colonies” value [4, 8] was 0 and the “Number of Colonies” value [4, 9] was “no colonies”. For the same compound, the CFU/mL (S. aureus (ATCC 6538) [5]; [8]) was 0 CFU/mL, the “Number of Colonies” value (S. aureus (ATCC 6538) [5]; [8]) was 0 and the “Number of Colonies” value (S. aureus (ATCC 6538) [5]; [9]) was “no colonies”. For the same compound, the CFU/mL (E. coli (ATCC BAA 1427) [6]; [8]) was 0 CFU/mL, the “Number of Colonies” value (E. coli (ATCC BAA 1427) [6]; [8]) was 0 and the “Number of Colonies” value (E. coli (ATCC BAA 1427) [6]; [9]) was “no colonies”.
For `CCCCCCCCCCCC(=O)N[C@@H](CCCN=C(N)N)C(=O)OCC.Cl` [ethyl lauroyl arginate hydrochloride], the “Average Growth Inhibition (%)” value ([1]; 0.46875 μg/mL) was 2%, the “Average Growth Inhibition (%)” value ([1]; 0.9375 μg/mL) was 2% and the “Average Growth Inhibition (%)” value ([1]; 1.875 μg/mL) was 2%. For the same compound, the “Average Growth Inhibition (%)” value ([1]; 3.75 μg/mL) was 4%, the “Average Growth Inhibition (%)” value ([1]; 7.5 μg/mL) was 5% and the “Average Growth Inhibition (%)” value ([1]; 15 μg/mL) was 2%. The “Average Growth Inhibition (%)” value ([1]; 30 μg/mL) was 100%, the “Average Growth Inhibition (%)” value ([1]; 60 μg/mL) was 99% and the MIC [1, 10] was 30 µg/mL. The “Average Growth Inhibition (%)” value (S. aureus (ATCC 6538) [2]; 0.46875 μg/mL) was 7%, the “Average Growth Inhibition (%)” value (S. aureus (ATCC 6538) [2]; 0.9375 μg/mL) was -1% and the “Average Growth Inhibition (%)” value (S. aureus (ATCC 6538) [2]; 1.875 μg/mL) was -17%. The “Average Growth Inhibition (%)” value (S. aureus (ATCC 6538) [2]; 3.75 μg/mL) was 100%, the “Average Growth Inhibition (%)” value (S. aureus (ATCC 6538) [2]; 7.5 μg/mL) was 101% and the “Average Growth Inhibition (%)” value (S. aureus (ATCC 6538) [2]; 15 μg/mL) was 101%. For the same compound, the “Average Growth Inhibition (%)” value (S. aureus (ATCC 6538) [2]; 30 μg/mL) was 97%, the “Average Growth Inhibition (%)” value (S. aureus (ATCC 6538) [2]; 60 μg/mL) was 93% and the MIC (S. aureus (ATCC 6538) [2]; [10]) was 3.75 µg/mL. The “Average Growth Inhibition (%)” value (E. coli (ATCC BAA 1427) [3]; 0.46875 μg/mL) was 3%, the “Average Growth Inhibition (%)” value (E. coli (ATCC BAA 1427) [3]; 0.9375 μg/mL) was 6% and the “Average Growth Inhibition (%)” value (E. coli (ATCC BAA 1427) [3]; 1.875 μg/mL) was 5%. For the same compound, the “Average Growth Inhibition (%)” value (E. coli (ATCC BAA 1427) [3]; 3.75 μg/mL) was 4%, the “Average Growth Inhibition (%)” value (E. coli (ATCC BAA 1427) [3]; 7.5 μg/mL) was 4% and the “Average Growth Inhibition (%)” value (E. coli (ATCC BAA 1427) [3]; 15 μg/mL) was 100%. The “Average Growth Inhibition (%)” value (E. coli (ATCC BAA 1427) [3]; 30 μg/mL) was 100%, the “Average Growth Inhibition (%)” value (E. coli (ATCC BAA 1427) [3]; 60 μg/mL) was 99% and the “MIC of LAE Alone” value (P. aeruginosa; alone) was 30 µg/mL. For the same compound, the “MIC of LAE in Presence of CHG” value (P. aeruginosa; in presence of CHG) was 7.5 µg/mL, the “MIC of LAE Alone” value (S. aureus; alone) was 3.75 µg/mL and the “MIC of LAE in Presence of CHG” value (S. aureus; in presence of CHG) was 1.875 µg/mL. For the same compound, the “MIC of LAE Alone” value (E. coli; alone) was 15 µg/mL, the “MIC of LAE in Presence of CHG” value (E. coli; in presence of CHG) was 3.75 µg/mL and the CFU/mL ([4]; 0.46875 μg/mL) was “Lawn”. The “Number of Colonies” value [4, 11] was “Lawn (‘Lawn’ indicates too many colonies to accurately count (e.g., greater than 250 colonies on an agar plate))”, the CFU/mL ([4]; 0.9375 μg/mL) was “Lawn” and the “Number of Colonies” value [4, 12] was “Lawn (‘Lawn’ indicates too many colonies to accurately count (e.g., greater than 250 colonies on an agar plate))”. The CFU/mL ([4]; 1.875 μg/mL) was “Lawn”, the “Number of Colonies” value [4, 13] was “Lawn (‘Lawn’ indicates too many colonies to accurately count (e.g., greater than 250 colonies on an agar plate))” and the CFU/mL ([4]; 3.75 μg/mL) was “Lawn”. For the same compound, the “Number of Colonies” value [4, 14] was “Lawn (‘Lawn’ indicates too many colonies to accurately count (e.g., greater than 250 colonies on an agar plate))”, the CFU/mL ([4]; 7.5 μg/mL) was “Lawn” and the “Number of Colonies” value [4, 15] was “Lawn (‘Lawn’ indicates too many colonies to accurately count (e.g., greater than 250 colonies on an agar plate))”. For the same compound, the CFU/mL ([4]; 15 μg/mL) was “Lawn”, the “Number of Colonies” value [4, 16] was “Lawn (‘Lawn’ indicates too many colonies to accurately count (e.g., greater than 250 colonies on an agar plate))” and the CFU/mL ([4]; 30 μg/mL) was 0 CFU/mL. The “Number of Colonies” value [4, 17] was 0, the CFU/mL ([4]; 60 μg/mL) was 0 CFU/mL and the “Number of Colonies” value [4, 18] was 0. The MBC [4, 19] was 30 µg/mL, the CFU/mL (S. aureus (ATCC 6538) [5]; 0.46875 μg/mL) was “Lawn” and the “Number of Colonies” value (S. aureus (ATCC 6538) [5]; [11]) was “Lawn (‘Lawn’ indicates too many colonies to accurately count (e.g., greater than 250 colonies on an agar plate))”. For the same compound, the CFU/mL (S. aureus (ATCC 6538) [5]; 0.9375 μg/mL) was “Lawn”, the “Number of Colonies” value (S. aureus (ATCC 6538) [5]; [12]) was “Lawn (‘Lawn’ indicates too many colonies to accurately count (e.g., greater than 250 colonies on an agar plate))” and the CFU/mL (S. aureus (ATCC 6538) [5]; 1.875 μg/mL) was “Lawn”. The “Number of Colonies” value (S. aureus (ATCC 6538) [5]; [13]) was “Lawn (‘Lawn’ indicates too many colonies to accurately count (e.g., greater than 250 colonies on an agar plate))”, the CFU/mL (S. aureus (ATCC 6538) [5]; 3.75 μg/mL) was 500 CFU/mL and the “Number of Colonies” value (S. aureus (ATCC 6538) [5]; [14]) was 5. The CFU/mL (S. aureus (ATCC 6538) [5]; 7.5 μg/mL) was 0 CFU/mL, the “Number of Colonies” value (S. aureus (ATCC 6538) [5]; [15]) was 0 and the CFU/mL (S. aureus (ATCC 6538) [5]; 15 μg/mL) was 0 CFU/mL. For the same compound, the “Number of Colonies” value (S. aureus (ATCC 6538) [5]; [16]) was 0, the CFU/mL (S. aureus (ATCC 6538) [5]; 30 μg/mL) was 0 CFU/mL and the “Number of Colonies” value (S. aureus (ATCC 6538) [5]; [17]) was 0. The CFU/mL (S. aureus (ATCC 6538) [5]; 60 μg/mL) was 0 CFU/mL, the “Number of Colonies” value (S. aureus (ATCC 6538) [5]; [18]) was 0 and the MBC (S. aureus (ATCC 6538) [5]; [19]) was 3.75 µg/mL. For the same compound, the CFU/mL (E. coli (ATCC BAA 1427) [6]; 0.46875 μg/mL) was “Lawn”, the “Number of Colonies” value (E. coli (ATCC BAA 1427) [6]; [11]) was “Lawn (‘Lawn’ indicates too many colonies to accurately count (e.g., greater than 250 colonies on an agar plate))” and the CFU/mL (E. coli (ATCC BAA 1427) [6]; 0.9375 μg/mL) was “Lawn”. For the same compound, the “Number of Colonies” value (E. coli (ATCC BAA 1427) [6]; [12]) was “Lawn (‘Lawn’ indicates too many colonies to accurately count (e.g., greater than 250 colonies on an agar plate))”, the CFU/mL (E. coli (ATCC BAA 1427) [6]; 1.875 μg/mL) was “Lawn” and the “Number of Colonies” value (E. coli (ATCC BAA 1427) [6]; [13]) was “Lawn (‘Lawn’ indicates too many colonies to accurately count (e.g., greater than 250 colonies on an agar plate))”. For the same compound, the CFU/mL (E. coli (ATCC BAA 1427) [6]; 3.75 μg/mL) was “Lawn”, the “Number of Colonies” value (E. coli (ATCC BAA 1427) [6]; [14]) was “Lawn (‘Lawn’ indicates too many colonies to accurately count (e.g., greater than 250 colonies on an agar plate))” and the CFU/mL (E. coli (ATCC BAA 1427) [6]; 7.5 μg/mL) was “Lawn”. For the same compound, the “Number of Colonies” value (E. coli (ATCC BAA 1427) [6]; [15]) was “Lawn (‘Lawn’ indicates too many colonies to accurately count (e.g., greater than 250 colonies on an agar plate))”, the CFU/mL (E. coli (ATCC BAA 1427) [6]; 15 μg/mL) was 0 CFU/mL and the “Number of Colonies” value (E. coli (ATCC BAA 1427) [6]; [16]) was 0. The CFU/mL (E. coli (ATCC BAA 1427) [6]; 30 μg/mL) was 0 CFU/mL, the “Number of Colonies” value (E. coli (ATCC BAA 1427) [6]; [17]) was 0 and the CFU/mL (E. coli (ATCC BAA 1427) [6]; 60 μg/mL) was 0 CFU/mL. For the same compound, the “Number of Colonies” value (E. coli (ATCC BAA 1427) [6]; [18]) was 0 and the MBC (E. coli (ATCC BAA 1427) [6]; [19]) was 15 µg/mL.
